Data published in ChEMBL document CHEMBL1201862, “PubChem BioAssay data set” (2004).
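Results reflect a 48-hour exposure of cells in 96-well plates to compound at five concentrations. The concentration for 50% growth inhibition is given as GI50.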 The source made the active and inactive calls. Cut-off read from the data, not from the text of the source: active = GI50 up to about 1.1 µM and inactive = higher.

Legend:
Experiment in all cases: NCI anticancer screen, dose series, 48 h
SNB-75 = tested on: SNB-75
OVCAR-5 = tested on: OVCAR-5
HOP-62 = tested on: HOP-62
SR = tested on: SR
HT-29 = tested on: HT-29
SNB-19 = tested on: SNB-19
SK-MEL-28 = tested on: SK-MEL-28
RPMI-8226 = tested on: RPMI-8226
MDA-MB-435 = tested on: MDA-MB-435
NCI/ADR-RES = tested on: NCI/ADR-RES
CAKI-1 = tested on: CAKI-1
NCI-H522 = tested on: NCI-H522
MDA-N = tested on: MDA-N
NCI-H23 = tested on: NCI-H23
M14 = tested on: M14
A549 = tested on: A549
SF-295 = tested on: SF-295
KM12 = tested on: KM12
ACHN = tested on: ACHN
HL-60 = tested on: HL-60
SF-268 = tested on: SF-268
Malme-3M = tested on: Malme-3M
LOX IMVI = tested on: LOX IMVI
Hs-578T = tested on: Hs-578T
SN12C = tested on: SN12C
HCT-116 = tested on: HCT-116
UO-31 = tested on: UO-31
SK-MEL-5 = tested on: SK-MEL-5
SK-OV-3 = tested on: SK-OV-3
MCF7 = tested on: MCF7
NCI-H226 = tested on: NCI-H226
EKVX = tested on: EKVX
BT-549 = tested on: BT-549
UACC-62 = tested on: UACC-62
RXF 393 = tested on: RXF 393
786-0 = tested on: 786-0
HOP-92 = tested on: HOP-92
K562 = tested on: K562
HCT-15 = tested on: HCT-15
IGROV-1 = tested on: IGROV-1
COLO 205 = tested on: COLO 205
SW-620 = tested on: SW-620
T47D = tested on: T47D
OVCAR-8 = tested on: OVCAR-8
OVCAR-4 = tested on: OVCAR-4
MOLT-4 = tested on: MOLT-4
SF-539 = tested on: SF-539
HCC 2998 = tested on: HCC 2998
UACC-257 = tested on: UACC-257
U-251 = tested on: U-251
A498 = tested on: A498
MDA-MB-231 = tested on: MDA-MB-231
PC-3 = tested on: PC-3
SK-MEL-2 = tested on: SK-MEL-2
NCI-H460 = tested on: NCI-H460
DU-145 = tested on: DU-145
OVCAR-3 = tested on: OVCAR-3
TK-10 = tested on: TK-10
CCRF-CEM = tested on: CCRF-CEM

With `C=CCOC(=O)CC[C@H](NC(=O)[C@@H](CCC(F)(F)F)Cc1ccc(O)cc1)C(=O)OCC=C` the GI50 (SNB-75) was 28.8 µM (inactive), the GI50 (OVCAR-5) was > 100 µM (inactive) and the GI50 (HOP-62) was > 100 µM (inactive). For the same compound, the GI50 (SR) was 32.5 µM (inactive), the GI50 (HT-29) was > 100 µM (inactive) and the GI50 (SNB-19) was > 100 µM (inactive). For the same compound, the GI50 (SK-MEL-28) was 23.7 µM (inactive), the GI50 (RPMI-8226) was 30.4 µM (inactive) and the GI50 (MDA-MB-435) was 25.4 µM (inactive). The GI50 (NCI/ADR-RES) was > 100 µM (inactive), the GI50 (CAKI-1) was > 100 µM (inactive) and the GI50 (NCI-H522) was 24.3 µM (inactive). The GI50 (MDA-N) was 32.7 µM (inactive), the GI50 (NCI-H23) was 38.5 µM (inactive) and the GI50 (M14) was 21.3 µM (inactive). The GI50 (A549) was > 100 µM (inactive), the GI50 (SF-295) was > 100 µM (inactive) and the GI50 (KM12) was > 100 µM (inactive). The GI50 (ACHN) was 47.9 µM (inactive), the GI50 (HL-60) was 85.9 µM (inactive) and the GI50 (SF-268) was 41 µM (inactive). For the same compound, the GI50 (Malme-3M) was 20.2 µM (inactive), the GI50 (LOX IMVI) was 55.2 µM (inactive) and the GI50 (Hs-578T) was 36.7 µM (inactive). The GI50 (SN12C) was 45.4 µM (inactive), the GI50 (HCT-116) was > 100 µM (inactive) and the GI50 (UO-31) was > 100 µM (inactive). The GI50 (SK-MEL-5) was 18.5 µM (inactive), the GI50 (SK-OV-3) was > 100 µM (inactive) and the GI50 (MCF7) was 20.7 µM (inactive). For the same compound, the GI50 (NCI-H226) was > 100 µM (inactive), the GI50 (EKVX) was 27.3 µM (inactive) and the GI50 (BT-549) was > 100 µM (inactive). For the same compound, the GI50 (UACC-62) was 34 µM (inactive), the GI50 (RXF 393) was > 100 µM (inactive) and the GI50 (786-0) was 86.9 µM (inactive). For the same compound, the GI50 (HOP-92) was 67.1 µM (inactive), the GI50 (K562) was 41.5 µM (inactive) and the GI50 (HCT-15) was > 100 µM. The GI50 (IGROV-1) was > 100 µM (inactive), the GI50 (COLO 205) was 21.3 µM (inactive) and the GI50 (SW-620) was > 100 µM (inactive). For the same compound, the GI50 (T47D) was 20.6 µM (inactive), the GI50 (OVCAR-8) was > 100 µM (inactive) and the GI50 (OVCAR-4) was 65.2 µM (inactive). For the same compound, the GI50 (MOLT-4) was 27.7 µM (inactive) and the GI50 (SF-539) was 90.2 µM (inactive).

With `CSc1c(C(N)=S)c(N)nn1-c1ccccc1` the GI50 (SNB-75) was > 100 µM (inactive), the GI50 (HCC 2998) was > 100 µM (inactive) and the GI50 (OVCAR-5) was > 100 µM (inactive). For the same compound, the GI50 (SR) was > 100 µM (inactive), the GI50 (HT-29) was > 100 µM (inactive) and the GI50 (UACC-257) was > 100 µM (inactive). For the same compound, the GI50 (SNB-19) was > 100 µM (inactive), the GI50 (SK-MEL-28) was > 100 µM (inactive) and the GI50 (U-251) was > 100 µM (inactive). The GI50 (RPMI-8226) was > 100 µM (inactive), the GI50 (A498) was > 100 µM (inactive) and the GI50 (MDA-MB-435) was > 100 µM (inactive). The GI50 (NCI/ADR-RES) was > 100 µM (inactive), the GI50 (CAKI-1) was > 100 µM (inactive) and the GI50 (MDA-MB-231) was > 100 µM (inactive). For the same compound, the GI50 (NCI-H522) was > 100 µM (inactive), the GI50 (NCI-H23) was > 100 µM (inactive) and the GI50 (PC-3) was > 100 µM (inactive). For the same compound, the GI50 (M14) was > 100 µM (inactive), the GI50 (A549) was > 100 µM (inactive) and the GI50 (KM12) was > 100 µM (inactive). The GI50 (HL-60) was > 100 µM (inactive), the GI50 (SF-268) was > 100 µM (inactive) and the GI50 (Malme-3M) was > 100 µM (inactive). The GI50 (LOX IMVI) was > 100 µM (inactive), the GI50 (Hs-578T) was > 100 µM (inactive) and the GI50 (SN12C) was > 100 µM (inactive). For the same compound, the GI50 (HCT-116) was > 100 µM (inactive), the GI50 (SK-MEL-2) was > 100 µM (inactive) and the GI50 (UO-31) was > 100 µM (inactive). The GI50 (SK-MEL-5) was > 100 µM (inactive), the GI50 (SK-OV-3) was > 100 µM (inactive) and the GI50 (MCF7) was > 100 µM (inactive). For the same compound, the GI50 (NCI-H460) was > 100 µM (inactive), the GI50 (NCI-H226) was > 100 µM (inactive) and the GI50 (EKVX) was > 100 µM (inactive). For the same compound, the GI50 (DU-145) was > 100 µM (inactive), the GI50 (BT-549) was > 100 µM (inactive) and the GI50 (UACC-62) was > 100 µM (inactive). For the same compound, the GI50 (RXF 393) was > 100 µM (inactive), the GI50 (786-0) was > 100 µM (inactive) and the GI50 (HOP-92) was > 100 µM (inactive). The GI50 (K562) was > 100 µM (inactive), the GI50 (HCT-15) was > 100 µM and the GI50 (IGROV-1) was > 100 µM (inactive). The GI50 (COLO 205) was > 100 µM (inactive), the GI50 (SW-620) was > 100 µM (inactive) and the GI50 (T47D) was > 100 µM (inactive). For the same compound, the GI50 (OVCAR-8) was > 100 µM (inactive), the GI50 (OVCAR-3) was > 100 µM (inactive) and the GI50 (OVCAR-4) was > 100 µM (inactive). For the same compound, the GI50 (MOLT-4) was > 100 µM (inactive), the GI50 (SF-539) was > 100 µM (inactive) and the GI50 (TK-10) was > 100 µM (inactive).

For `Cc1nc2c(=O)[nH]c3ccc(Cl)cc3c2o1`, the GI50 (SNB-75) was > 100 µM (inactive), the GI50 (HCC 2998) was > 100 µM (inactive) and the GI50 (OVCAR-5) was > 100 µM (inactive). For the same compound, the GI50 (HOP-62) was > 100 µM (inactive), the GI50 (SR) was > 100 µM (inactive) and the GI50 (HT-29) was > 100 µM (inactive). The GI50 (UACC-257) was > 100 µM (inactive), the GI50 (SNB-19) was > 100 µM (inactive) and the GI50 (U-251) was > 100 µM (inactive). For the same compound, the GI50 (RPMI-8226) was > 100 µM (inactive), the GI50 (A498) was > 100 µM (inactive) and the GI50 (MDA-MB-435) was > 100 µM (inactive). The GI50 (NCI/ADR-RES) was > 100 µM (inactive), the GI50 (CAKI-1) was > 100 µM (inactive) and the GI50 (MDA-MB-231) was > 100 µM (inactive). The GI50 (NCI-H522) was > 100 µM (inactive), the GI50 (MDA-N) was > 100 µM (inactive) and the GI50 (NCI-H23) was > 100 µM (inactive). The GI50 (PC-3) was > 100 µM (inactive), the GI50 (M14) was > 100 µM (inactive) and the GI50 (A549) was > 100 µM (inactive). For the same compound, the GI50 (SF-295) was > 100 µM (inactive), the GI50 (KM12) was > 100 µM (inactive) and the GI50 (ACHN) was > 100 µM (inactive). The GI50 (SF-268) was > 100 µM (inactive), the GI50 (Malme-3M) was > 100 µM (inactive) and the GI50 (LOX IMVI) was > 100 µM (inactive). For the same compound, the GI50 (Hs-578T) was > 100 µM (inactive), the GI50 (CCRF-CEM) was > 100 µM (inactive) and the GI50 (SN12C) was > 100 µM (inactive). The GI50 (HCT-116) was > 100 µM (inactive), the GI50 (SK-MEL-2) was > 100 µM (inactive) and the GI50 (UO-31) was > 100 µM (inactive). For the same compound, the GI50 (SK-MEL-5) was > 100 µM (inactive), the GI50 (SK-OV-3) was > 100 µM (inactive) and the GI50 (MCF7) was > 100 µM (inactive). For the same compound, the GI50 (NCI-H460) was > 100 µM (inactive), the GI50 (NCI-H226) was > 100 µM (inactive) and the GI50 (EKVX) was 69.7 µM (inactive). For the same compound, the GI50 (BT-549) was > 100 µM (inactive), the GI50 (UACC-62) was > 100 µM (inactive) and the GI50 (RXF 393) was > 100 µM (inactive). For the same compound, the GI50 (786-0) was > 100 µM (inactive), the GI50 (HOP-92) was > 100 µM (inactive) and the GI50 (K562) was > 100 µM (inactive). The GI50 (HCT-15) was > 100 µM, the GI50 (IGROV-1) was 89.7 µM (inactive) and the GI50 (COLO 205) was > 100 µM (inactive). For the same compound, the GI50 (SW-620) was > 100 µM (inactive), the GI50 (T47D) was > 100 µM (inactive) and the GI50 (OVCAR-8) was > 100 µM (inactive). The GI50 (OVCAR-3) was > 100 µM (inactive), the GI50 (OVCAR-4) was > 100 µM (inactive) and the GI50 (MOLT-4) was > 100 µM (inactive). For the same compound, the GI50 (SF-539) was > 100 µM (inactive) and the GI50 (TK-10) was > 100 µM (inactive).
